# Tests used:
# Format in all cases: in vivo
# Conditions in all cases: 21 days, 0 = no damage, 100 = complete destruction
# [1] = tested on: Alopecurus myosuroides; assay: Greenhouse experiment, herbicidal activity, post-emergence method
# From the text: (§1) For the post-emergence treatment, the test plants were first grown to a height of 3 to 20 cm, depending on the plant habit, and only then treated. Here, the herbicidal compositions were suspended or emulsified in water as distribution medium and sprayed using finely distributing nozzles.
# (§2) The respective components I and B and/or C were formulated as 10% by weight strength emulsion concentrate and introduced to the spray liquor with the amount of solvent system used for applying the active compound. In the examples, the solvent used was water.
# (§3) The test period extended over 21 days. During this time, the plants were tended, and their response to the treatments with active compound was evaluated.
# (§4) The evaluation for the damage caused by the chemical compositions was carried out using a scale from 0 to 100%, compared to the untreated control plants. Here, 0 means no damage and 100 means complete destruction of the plants.
# (§5) In the examples below, the value E which is to be expected if the activity of the individual compounds is just additive was calculated using the method of S. R. Colby (1967) “Calculating synergistic and antagonistic responses of herbicide combinations”, Weeds 15, p. 22 ff. E=X+Y−(X·Y/100) where
# (§6) X=effect in percent using active compound I at an application rate a;
# (§7) Y=effect in percent using active compound B at an application rate b;
# (§8) E=expected effect (in %) of I+B at application rates a+b.
# (§9) If the value […] in this manner is higher than the value E calculated according to Colby, a synergistic effect is present.
# [2] = tested on: Amaranthus retroflexus; assay: Greenhouse experiment, herbicidal activity, pre-emergence method
# Protocol: as §2, §3, §4, §5, §6, §7, §8, §9
# [3] = tested on: Echinocloa crus-galli; assay: Greenhouse experiment, herbicidal activity, post-emergence method
# From the text: as §1, §2, §3, §4, §5, §6, §7, §8, §9
# [4] = application rate 1.95 g/ha of each active compound applied (mixture 1.95 + 1.95 g/ha)
# [5] = application rate 0.98 g/ha of each active compound applied (mixture 0.98 + 0.98 g/ha)
Molecule,"Herbicidal activity against Alopecurus myosuroides, found [1, 4] [%]","Herbicidal activity against Alopecurus myosuroides, found ([1]; application rate 3.91 g/ha of each active compound applied (mixture 3.91 + 3.91 g/ha)) [%]","Herbicidal activity against Amaranthus retroflexus, found [2, 5] [%]","Herbicidal activity against Amaranthus retroflexus, found [2, 4] [%]","Herbicidal activity against Echinocloa crus-galli, found [3, 5] [%]","Herbicidal activity against Echinocloa crus-galli, found [3, 4] [%]"
4-Hydroxy-3-{[2-methoxyethoxy)methyl-6-(trifluormethyl)-3-pyridinyl]carbonyl}bicyclo[3.2.1]oct-3-en-2-one [B.2],0,0,–,–,–,–
"Cc1nc(C(F)(F)F)ccc1C(=O)C1=C(O)C2CCC(C2)C1=O (stereo not drawn) [B.1, 4-Hydroxy-3-{[2-methyl-6-(triflurmethyl)-3-pyridinyl]carbonyl}ci-cyclo[3.2.1]oct-3-en-2-one]",–,–,0,20,30,60
